Ends that are not written are not given here. Peptide text beside a SMILES is read from it.
Legend:
CRF2R = target: T1, CRF2R (Homo sapiens, UniProt Q13324); experiment: CRF2R agonist activation (EC50 / Emax), called comparative CRF binding; format: cell-based; conditions: for Emax: read-out: CRF2R Emax; for EC50: read-out: CRF2R EC50
T1 sequence (Q13324 1-411): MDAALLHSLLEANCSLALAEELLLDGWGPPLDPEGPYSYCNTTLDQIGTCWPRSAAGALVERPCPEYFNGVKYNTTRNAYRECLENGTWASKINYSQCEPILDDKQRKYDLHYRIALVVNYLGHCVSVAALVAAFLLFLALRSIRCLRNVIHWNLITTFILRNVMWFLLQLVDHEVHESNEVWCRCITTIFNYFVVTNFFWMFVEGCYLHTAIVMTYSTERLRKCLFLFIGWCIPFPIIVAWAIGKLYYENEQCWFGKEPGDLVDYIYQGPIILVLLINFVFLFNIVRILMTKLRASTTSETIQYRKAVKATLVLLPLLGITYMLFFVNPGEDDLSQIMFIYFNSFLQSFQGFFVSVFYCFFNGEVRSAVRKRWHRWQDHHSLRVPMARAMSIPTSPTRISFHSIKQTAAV
Method in brief: (§1)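 Peptides are tested on cells bearing CRF1R or CRF2R, full length or as ligand-binding-domain constructs coupled to reporters or G proteins. Activation is scored by cAMP rise, measured in lysates or by CRE-reporter output, against vehicle control.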

CRF1R = target: T2, CRF1R (Homo sapiens, UniProt P34998); experiment: CRF1R agonist activation (EC50 / Emax), called comparative CRF binding; format: cell-based; conditions: for Emax: read-out: CRF1R Emax; for EC50: read-out: CRF1R EC50
T2 sequence (P34998 24-415): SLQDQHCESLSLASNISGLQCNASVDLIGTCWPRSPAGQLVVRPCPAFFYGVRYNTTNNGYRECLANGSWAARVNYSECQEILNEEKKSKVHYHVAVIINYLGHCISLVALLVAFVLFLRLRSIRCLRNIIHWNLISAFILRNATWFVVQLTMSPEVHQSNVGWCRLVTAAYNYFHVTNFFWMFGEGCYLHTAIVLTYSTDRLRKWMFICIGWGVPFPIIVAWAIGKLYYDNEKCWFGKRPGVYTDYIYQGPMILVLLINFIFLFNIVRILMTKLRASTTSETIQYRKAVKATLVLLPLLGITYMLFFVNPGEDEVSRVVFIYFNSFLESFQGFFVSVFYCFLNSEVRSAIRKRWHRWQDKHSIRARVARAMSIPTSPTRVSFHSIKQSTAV
Method in brief: as §1

Compound | Emax (CRF2R) | Emax (CRF1R) | EC50 (CRF2R) | EC50 (CRF1R)
CC[C@H](C)[C@H](NC(=O)[C@H](C)NC(=O)[C@H](CC(N)=O)NC(=O)[C@H](CCC(N)=O)NC(=O)[C@H](CCC(=O)O)NC(=O)[C@H](C)NC(=O)[C@H](CCCNC(=N)N)NC(=O)[C@H](CCC(=O)O)NC(=O)[C@H](CCCNC(=N)N)NC(=O)[C@H](CCC(N)=O)NC(=O)[C@H](CO)NC(=O)[C@H](CCC(N)=O)NC(=O)[C@@H](NC(=O)[C@H](CCCCN)NC(=O)[C@H](CCC(=O)O)NC(=O)[C@H](CC(C)C)NC(=O)[C@H](CCC(=O)O)NC(=O)[C@H](CC(C)C)NC(=O)[C@H](CC(C)C)NC(=O)[C@@H](NC(=O)[C@H](CCCNC(=N)N)NC(=O)[C@H](CC(C)C)NC(=O)[C@H](CC(C)C)NC(=O)[C@H](CCC(N)=O)NC(=O)[C@H](CC(C)C)NC(=O)[C@@H]1CCCN1C(=O)[C@H](CC(C)C)NC(=O)[C@H](CC(=O)O)NC(=O)[C@@H](NC(=O)[C@H](CO)NC(=O)[C@H](CC(C)C)NC(=O)[C@H](CO)NC(=O)[C@@H]1CCCN1C(=O)[C@H](CC(N)=O)NC(=O)[C@@H](N)CC(=O)O)[C@@H](C)CC)[C@@H](C)O)[C@@H](C)O)C(=O)N[C@H](C(=O)N[C@@H](Cc1ccccc1)C(=O)N[C@@H](C)C(=O)N[C@@H](CO)C(=O)N[C@H](C(N)=O)C(C)C)[C@@H](C)CC [compound 342] (H-DNPSLSIDLPLQLLRTLLELEKTQSQRERAEQNAIIFASV-NH2; N-terminus assumed) | 92.2% | 19.6% |  | 
SQEPPISLDLPLQLLREVLEMTKADQLAQQAHSNRKLLDIA-NH2 [compound 95] | 8.25% | 5.55% |  | 
CC[C@H](C)[C@H](NC(=O)[C@H](C)NC(=O)[C@H](CC(N)=O)NC(=O)[C@H](CCC(N)=O)NC(=O)[C@H](CCC(=O)O)NC(=O)[C@H](C)NC(=O)[C@H](CCCNC(=N)N)NC(=O)[C@H](CCC(=O)O)NC(=O)[C@H](CCCNC(=N)N)NC(=O)[C@H](CCC(N)=O)NC(=O)[C@H](CO)NC(=O)[C@H](CCC(N)=O)NC(=O)[C@@H](NC(=O)[C@H](CCCNC(=N)N)NC(=O)[C@H](C)NC(=O)[C@H](CC(C)C)NC(=O)[C@H](CCC(=O)O)NC(=O)[C@H](CC(C)C)NC(=O)[C@H](CC(C)C)NC(=O)[C@@H](NC(=O)[C@H](CCCNC(=N)N)NC(=O)[C@H](CC(C)C)NC(=O)[C@H](CC(C)C)NC(=O)[C@H](Cc1c[nH]cn1)NC(=O)[C@H](Cc1ccccc1)NC(=O)[C@@H]1CCCN1C(=O)[C@H](CC(C)C)NC(=O)[C@H](CC(=O)O)NC(=O)[C@@H](NC(=O)[C@H](CO)NC(=O)[C@H](CC(C)C)NC(=O)[C@H](CO)NC(=O)[C@@H]1CCCN1C(=O)[C@H](CC(N)=O)NC(=O)[C@@H](N)CC(=O)O)[C@@H](C)CC)[C@@H](C)O)[C@@H](C)O)C(=O)N[C@H](C(=O)N[C@@H](Cc1ccccc1)C(=O)N[C@@H](C)C(=O)N[C@@H](CO)C(=O)N[C@H](C(N)=O)C(C)C)[C@@H](C)CC [compound 185] (H-DNPSLSIDLPFHLLRTLLELARTQSQRERAEQNAIIFASV-NH2; N-terminus assumed) | 100% | 95.8% | 8.98 nM | 358 nM
NDDPPISIDLPLYLLRNMIEMARIENEREQAGLNAKYLAEV-NH2 [compound 271] | 69% | 80.7% | 48.1 nM | 815 nM

From patent US6936585B2, “Corticotropin releasing factor 2 receptor agonists” (priority 2002, dated 2005)
